Structures can show the parent of a compound that is named as a salt.

The target in this experiment is T1, human recombinant P2X7 receptors (Homo sapiens, UniProt Q99572).
T1 construct: expressed in transfected cells
T1 sequence (Q99572 1-595): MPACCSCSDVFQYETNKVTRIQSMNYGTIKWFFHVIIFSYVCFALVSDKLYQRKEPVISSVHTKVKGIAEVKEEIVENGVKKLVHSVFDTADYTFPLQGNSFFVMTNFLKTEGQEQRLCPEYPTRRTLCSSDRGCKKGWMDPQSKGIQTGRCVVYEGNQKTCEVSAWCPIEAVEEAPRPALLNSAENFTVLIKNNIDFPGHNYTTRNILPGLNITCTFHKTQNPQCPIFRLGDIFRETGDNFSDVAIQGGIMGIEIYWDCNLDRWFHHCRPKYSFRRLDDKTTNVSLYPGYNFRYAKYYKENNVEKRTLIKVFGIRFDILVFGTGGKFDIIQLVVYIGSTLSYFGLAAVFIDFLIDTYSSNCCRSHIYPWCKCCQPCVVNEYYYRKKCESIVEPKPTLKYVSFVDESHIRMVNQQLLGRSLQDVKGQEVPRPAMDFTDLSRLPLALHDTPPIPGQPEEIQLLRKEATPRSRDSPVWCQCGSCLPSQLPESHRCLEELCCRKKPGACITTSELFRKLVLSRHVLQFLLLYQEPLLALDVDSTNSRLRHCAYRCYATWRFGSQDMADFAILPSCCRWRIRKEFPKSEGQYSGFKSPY
The experiment is described as follows: Ethidium Accumulation Assay 1. The experiment is classed as cell-based. The conditions noted are these: HEK293 cells stably expressing human recombinant P2X7; 1 mM ATP; ethidium 100 μM; read-out: Assay 1 (antagonist pIC50 for blocking ATP responses, ethidium accumulation) (converted). The procedure: Studies were performed using NaCl assay buffer of the following composition: 140 mM NaCl, 10 mM HEPES [4-(2-hydroxyethyl)-1-piperazine-1-ethanesulfonic acid], 5 mM N-methyl-D-glucamine, 5.6 mM KCl, 10 mM D-glucose, 0.5 mM CaCl2 (pH 7.4).
Human Embryonic Kidney (HEK) 293 cells, stably expressing human recombinant P2X7 receptors, were grown in poly-D-lysine pretreated 96 well plates for 18-24 hours. […] The cells were washed twice with 350 μl of the assay buffer, before addition of 50 μl of the assay buffer containing the putative P2X7 receptor antagonist compound. (A small amount of dimethyl sulfoxide, for initially dissolving the compound, is optionally used and present in this […] test compound sample.) The cells were then incubated at room temperature (19-21° C.) for 30 min before addition of ATP and ethidium (100 μM final assay concentration). The ATP concentration was chosen to be close to the EC80 for the receptor type and was 1 mM for studies on the human P2X7 receptor. Incubations were continued for 8 or 16 min and were terminated by addition of 25 μl of 1.3M sucrose containing 4 mM of the P2X7 receptor antagonist Reactive Black 5 (Aldrich). […] Antagonist pIC50 values for blocking ATP responses were determined using iterative curve fitting techniques.
For `O=C(c1cccc(C(F)(F)F)c1Cl)N1CCn2c(Cl)cnc2C1` [Example 43, 3-chloro-7-{[2-chloro-3-(trifluoromethyl)phenyl]carbonyl}-5,6,7,8-tetrahydroimidazo[1,2-a]pyrazine], the IC50 was under 0.1 µM.

For the molecule `O=C(c1cccc(C(F)(F)F)c1Cl)N1CCn2c(nc(I)c2I)C1` [Example 20, 7-{[2-chloro-3-(trifluoromethyl)phenyl]carbonyl}-2,3-diiodo-5,6,7,8-tetrahydroimidazo[1,2-a]pyrazine], the IC50 was under 0.01 µM.

Turning to `O=C(c1cccc(C(F)(F)F)c1Cl)N1CCn2c(-c3ccccc3)cnc2C1` [Example 4, 7-{[2-chloro-3-(trifluoromethyl)phenyl]carbonyl}-3-phenyl-5,6,7,8-tetrahydroimidazo[1,2-a]pyrazine hydrochloride], the IC50 is under 0.01 µM.

With `O=C(c1cccc(C(F)(F)F)c1Cl)N1CCn2c(nc(C(F)(F)F)c2-c2ccccc2)C1` [Example 26, 7-{[2-Chloro-3-(trifluoromethyl)phenyl]carbonyl}-3-phenyl-2-(trifluoromethyl)-5,6,7,8-tetrahydroimidazo[1,2-a]pyrazine], the IC50 is under 0.1 µM.

Regarding `O=C(c1cccc(C(F)(F)F)c1Cl)N1CCn2c(-c3cccnc3)cnc2C1` [Example 23, a hydrochloride salt (n•HCl) of 7-{[2-chloro-3-(trifluoromethyl)phenyl]carbonyl}-3-(3-pyridinyl)-5,6,7,8-tetrahydroimidazo[1,2-a]pyrazine], the IC50 is under 0.01 µM.

Turning to `O=C(c1cccc(C(F)(F)F)c1Cl)N1CCn2c(-c3cnccn3)cnc2C1` [Example 38, 7-{[2-chloro-3-(trifluoromethyl)phenyl]carbonyl}-3-(2-pyrazinyl)-5,6,7,8-tetrahydroimidazo[1,2-a]pyrazine], the IC50 was under 0.01 µM.

On to `O=C(c1ccc(F)cc1Cl)N1CCn2c(Br)cnc2C1` [Example 30, 3-Bromo-7-[(2-chloro-4-fluorophenyl)carbonyl]-5,6,7,8-tetrahydroimidazo[1,2-a]pyrazine], for which the IC50 is under 0.501 µM.

In the case of `O=C(c1cccc(C(F)(F)F)c1Cl)N1CCn2c(-c3cscn3)cnc2C1` [Example 42, 7-{[2-chloro-3-(trifluoromethyl)phenyl]carbonyl}-3-(1,3-thiazol-4-yl)-5,6,7,8-tetrahydroimidazo[1,2-a]pyrazine], the IC50 is under 0.01 µM.

Consider `O=C(c1cccc(C(F)(F)F)c1Cl)N1CCn2c(nc(Cl)c2Cl)C1` [Example 45, 2,3-dichloro-7-{[2-chloro-3-(trifluoromethyl)phenyl]carbonyl}-5,6,7,8-tetrahydroimidazo[1,2-a]pyrazine], for which the IC50 is under 0.01 µM.

Take `O=C(c1cccc(C(F)(F)F)c1Cl)N1CCn2c(-c3ccc(Cl)cc3)cnc2C1` [Example 25, 3-(4-chlorophenyl)-7-{[2-chloro-3-(trifluoromethyl)phenyl]carbonyl}-5,6,7,8-tetrahydroimidazo[1,2-a]pyrazine hydrochloride]: the IC50 was under 0.501 µM.

In the case of `O=C(c1cccc(C(F)(F)F)c1Cl)N1CCn2cc(-c3ccccc3)nc2C1` [Example 14, 7-{[2-chloro-3-(trifluoromethyl)phenyl]carbonyl}-2-phenyl-5,6,7,8-tetrahydroimidazo[1,2-a]pyrazine hydrochloride], the IC50 is under 0.501 µM.

Regarding `O=C(c1ccccc1Cl)N1CCn2c(-c3ccccc3)cnc2C1` [Example 8, 7-[(2-chlorophenyl)carbonyl]-3-phenyl-5,6,7,8-tetrahydroimidazo[1,2-a]pyrazine hydrochloride], the IC50 was under 0.1 µM.

For the molecule `O=C(c1cccc(C(F)(F)F)c1Cl)N1CCn2c(-c3ccc(F)cc3)cnc2C1` [Example 22, 7-{[2-Chloro-3-(trifluoromethyl)phenyl]carbonyl}-3-(4-fluorophenyl)-5,6,7,8-tetrahydroimidazo[1,2-a]pyrazine hydrochloride], the IC50 is under 0.1 µM.

In the case of `O=C(c1cccc(C(F)(F)F)c1Cl)N1CCn2c(-c3nccs3)cnc2C1` [Example 39, 7-{[2-chloro-3-(trifluoromethyl)phenyl]carbonyl}-3-(1,3-thiazol-2-yl)-5,6,7,8-tetrahydroimidazo[1,2-a]pyrazine], the IC50 was under 0.01 µM.

Turning to `O=C(c1ccc(Cl)cc1Cl)N1CCn2c(Cl)cnc2C1` [Example 44, 3-chloro-7-[(2,4-dichlorophenyl)carbonyl]-5,6,7,8-tetrahydroimidazo[1,2-a]pyrazine], the IC50 is under 0.501 µM.

`O=C(c1cccc(C(F)(F)F)c1Cl)N1CCn2c(Br)cnc2C1` [Example 18, 3-Bromo-7-{[2-chloro-3-(trifluoromethyl)phenyl]carbonyl}-5,6,7,8-tetrahydroimidazo[1,2-a]pyrazine hydrochloride]: the IC50 is under 0.01 µM.

For the molecule `O=C(c1cccc(C(F)(F)F)c1Cl)N1CCn2c(-c3ncccn3)cnc2C1` [Example 41, 7-{[2-chloro-3-(trifluoromethyl)phenyl]carbonyl}-3-(2-pyrimidinyl)-5,6,7,8-tetrahydroimidazo[1,2-a]pyrazine], the IC50 was under 0.01 µM.

On to `O=C(c1cccc(C(F)(F)F)c1Cl)N1CCn2c(nc(Br)c2-c2ccc(F)cc2)C1` [Example 34, 2-Bromo-7-{[2-chloro-3-(trifluoromethyl)phenyl]carbonyl}-3-(4-fluorophenyl)-5,6,7,8-tetrahydroimidazo[1,2-a]pyrazine], for which the IC50 was under 0.1 µM.

Regarding `CC(C)(C)c1cn2c(n1)CN(C(=O)c1cccc(C(F)(F)F)c1Cl)CC2` [Example 13, 7-{[2-chloro-3-(trifluoromethyl)phenyl]carbonyl}-2-(1,1-dimethylethyl)-5,6,7,8-tetrahydroimidazo[1,2-a]pyrazine hydrochloride], the IC50 is under 1 µM.

On to `O=C(c1c(Cl)cc(Cl)cc1Cl)N1CCn2c(-c3ccccc3)cnc2C1` [Example 17, 3-Phenyl-7-[(2,4,6-trichlorophenyl)carbonyl]-5,6,7,8-tetrahydroimidazo[1,2-a]pyrazine hydrochloride], for which the IC50 was under 0.1 µM.

Consider `Cc1cn2c(n1)CN(C(=O)c1cccc(C(F)(F)F)c1Cl)CC2` [Example 11, 7-{[2-chloro-3-(trifluoromethyl)phenyl]carbonyl}-2-methyl-5,6,7,8-tetrahydroimidazo[1,2-a]pyrazine], for which the IC50 is under 0.501 µM.

As for `O=C(c1ccc(Cl)cc1Cl)N1CCn2c(-c3ccccc3)cnc2C1` [Example 5, 7-[(2,4-dichlorophenyl)carbonyl]-3-phenyl-5,6,7,8-tetrahydroimidazo[1,2-a]pyrazine hydrochloride], the IC50 was under 0.1 µM.

With `O=C(c1cccc(C(F)(F)F)c1Cl)N1CCn2c(nc(C(F)(F)F)c2Br)C1` [Example 19, 3-Bromo-7-{[2-chloro-3-(trifluoromethyl)phenyl]carbonyl}-2-(trifluoromethyl)-5,6,7,8-tetrahydroimidazo[1,2-a]pyrazine], the IC50 was under 0.01 µM.

`O=C(c1cccc(Cl)c1Cl)N1CCn2cc(-c3ccccc3)nc2C1` [Example 15, 7-[(2,3-dichlorophenyl)carbonyl]-2-phenyl-5,6,7,8-tetrahydroimidazo[1,2-a]pyrazine hydrochloride]: the IC50 is under 1 µM.

In the case of `O=C(c1cccc(C(F)(F)F)c1Cl)N1CCn2c(nc(Cl)c2Br)C1` [Example 33, 3-Bromo-2-chloro-7-{[2-chloro-3-(trifluoromethyl)phenyl]carbonyl}-5,6,7,8-tetrahydroimidazo[1,2-a]pyrazine], the IC50 is under 0.01 µM.

In the case of `O=C(c1ccc(F)cc1Cl)N1CCn2c(-c3cnccn3)cnc2C1` [Example 37, 7-[(2-chloro-4-fluorophenyl)carbonyl]-3-(2-pyrazinyl)-5,6,7,8-tetrahydroimidazo[1,2-a]pyrazine], the IC50 was under 0.01 µM.

Take `O=C(c1cccc(C(F)(F)F)c1Cl)N1CCn2c(-c3ccc(F)cn3)cnc2C1` [Example 31, 7-{[2-Chloro-3-(trifluoromethyl)phenyl]carbonyl}-3-(5-fluoro-2-pyridinyl)-5,6,7,8-tetrahydroimidazo[1,2-a]pyrazine]: the IC50 was under 0.01 µM.

In the case of `CCc1cn2c(n1)CN(C(=O)c1ccc(Cl)cc1Cl)CC2` [Example 7, 7-[(2,4-dichlorophenyl)carbonyl]-2-ethyl-5,6,7,8-tetrahydroimidazo[1,2-a]pyrazine], the IC50 is under 1 µM.

On to `O=C(c1cccc(Cl)c1Cl)N1CCn2c(-c3ccccc3)cnc2C1` [Example 9, 7-[(2,3-Dichlorophenyl)carbonyl]-3-phenyl-5,6,7,8-tetrahydroimidazo[1,2-a]pyrazine hydrochloride], for which the IC50 was under 0.01 µM.

For the origin of these results see patent US8513248B2, “5,6,7,8-tetrahydroimidazo[1,2-A]pyrazine derivatives as P2X7 modulators” (Glaxo Group Limited, priority 2009, dated 2013).
